Results published in ChEMBL document CHEMBL1125773, “Analogues of oxybutynin. Synthesis and antimuscarinic and bladder activity of some substituted 7-amino-1-hydroxy-5-heptyn-2-ones and related compounds” (1991).

Columns and labels:
[1] = organism: Cavia porcellus; assay: Antimuscarinic effect determined by comparing ability to inhibit carbachol-induced guinea pig detrusor muscle contractions; type: functional
[2] = system: Cavia porcellus; assay: Effect on in vivo functional detrusor muscle contraction strength using guinea pig model of cystometrogram; design: species or system Muscle tissue
[3] = organism: Cavia porcellus; assay: Duration of action at which functional detrusor muscle contraction strength was measured using guinea pig model of cystometrogram; design: species or system Muscle tissue

| SMILES | Kb [1] | Potency [2] | Duration [3] |
| --- | --- | --- | --- |
| CN(C)CC#CCCC(=O)C(O)(C1CCCCC1)C1CCCCC1 | 169 nM | 15.3 | – |
| CCN(C)CC#CCCC(=O)C(O)(c1ccccc1)C1CC1 (stereo not drawn) | 241 nM | 1.3 | 127 min |
| CCN(CC)CC#CCCC(=O)C(O)(c1ccccc1)C1CC1 (stereo not drawn) | 58 nM | 0.98 | 80 min |
| CN(C)Cc1ccc(CCC(=O)C(O)(c2ccccc2)C2CCCCC2)cc1 (stereo not drawn) | 1900 nM | – | – |
| CCNCC#CCCC(=O)C(O)(c1ccc(F)cc1)C1CCCCC1 (stereo not drawn) | 504 nM | 1.8 | 116 min |
| CC(C)C(O)(C(=O)CCC#CCN(C)C)c1ccccc1 (stereo not drawn) | 18.3 nM | 0.48 | 80 min |
| CN(C)CC#CCCC(=O)[C@](O)(c1ccccc1)C1CCCCC1 | 17 nM | 0.19 | 257 min |
| CCNCC#CCCC(=O)C(O)(c1ccccc1)C1CCC1 (stereo not drawn) | 224 nM | 1.1 | 103 min |
| CCN(CC)CC#CCCC(=O)C(O)(c1ccccc1)C1CCCCC1 (stereo not drawn) | 175 nM | 2.8 | 30 min |
| CN(C)CC#CCCC(=O)[C@@](O)(c1ccccc1)C1CCCCC1 | 209 nM | 3.6 | 88 min |
| CCN(CC)CC#CCCC(O)C(O)(c1ccccc1)C1CCCCC1 (stereo not drawn) | 1600 nM | 6.3 | 123 min |
| CC(C)NCC#CCCC(=O)C(O)(c1ccccc1)C1CCCCC1 (stereo not drawn) | 292 nM | 2.1 | 35 min |
| CCN(CC#CCCC(=O)C(O)(c1ccccc1)C1CCCCC1)C(C)C (stereo not drawn) | 217 nM | 3.3 | 23 min |
| CN(C)CC#CCCC(=O)C(O)(c1ccccc1)C12C[C@H]3C[C@@H](C1)C[C@@H](C2)C3 (stereo partly drawn) | >5000 nM | – | – |
| CC(C)N(CC#CCCC(=O)C(O)(c1ccccc1)C1CCCCC1)C(C)C (stereo not drawn) | 260 nM | 5.3 | 32 min |
| CCCCN(CC#CCCC(=O)C(O)(c1ccccc1)C1CCCCC1)CCCC (stereo not drawn) | >5000 nM | – | – |
| CC(C)CC(O)(C(=O)CCC#CCN(C)C)c1ccccc1 (stereo not drawn) | 30.5 nM | 4.1 | – |
| CN(C)CC#CC(CO)C(O)(c1ccccc1)C1CCCCC1 (stereo not drawn) | 99.7 nM | 7.38 | – |
| O=C(CCC#CCNCc1ccccc1)C(O)(c1ccccc1)C1CCCCC1 (stereo not drawn) | 4200 nM | – | – |
| CNCC#CCCC(=O)C(O)(c1ccccc1)C1CCCCC1 (stereo not drawn) | 71.2 nM | 0.48 | 48 min |
| CN(C)CCCCCC(=O)C(O)(c1ccccc1)C1CCCCC1 (stereo not drawn) | 43 nM | 1.27 | 294 min |
| CN(C)CC#CCCC(=O)C(O)(c1ccccc1)C12CCC(CC1)CC2 (stereo not drawn) | 115 nM | 4.4 | – |
| CN(C)CC#CCCC(=O)C(O)(c1ccccc1)C1CCC1 (single isomer, unassigned; (+)) | 6.2 nM | 0.06 | 88 min |
| CCN(CC)CC#CCCC(=O)C(C)(O)c1ccccc1 (stereo not drawn) | 5200 nM | – | – |
| CCNCC#CCCC(=O)C(O)(c1ccccc1)c1ccccc1 | 200 nM | 1.5 | 54 min |

| SMILES | Kb [1] | Potency [2] | Duration [3] |
| --- | --- | --- | --- |
| CCNCC#CCCC(=O)C(O)(c1ccccc1)C1CC2CCC1C2 (stereo not drawn) | 65 nM | 1.1 | 165 min |
| CCN(CC)CC#CCCC(=O)C(O)(c1ccccc1)C1CCCC1 (stereo not drawn) | 21 nM | 3.1 | – |
| CCNCC#CCCC(=O)C(O)(c1ccccc1)C1CCCCC1 (stereo not drawn) | 232 nM | 0.98 | 85 min |
| CN(C)CC#CCCC(=O)C(O)(c1ccc(F)cc1)C1CCCCC1 (stereo not drawn) | 67.7 nM | 0.9 | 104 min |
| CN(C)CC#CCCC(=O)C(O)(c1ccccc1)C1(C)CC1 (stereo not drawn) | 24 nM | 0.28 | 80 min |
| CCN(C)CC#CCCC(=O)C(O)(c1ccccc1)C1CCCCC1 (stereo not drawn) | 37 nM | 0.45 | 39 min |
| CN(C)CC#CCCC(=O)C(O)(c1ccccc1)C1CC2CCC1C2 (stereo not drawn) | 90 nM | 0.9 | 242 min |
| CN(CC#CCCC(=O)C(O)(c1ccccc1)C1CCCCC1)CCc1ccccc1 (stereo not drawn) | 551 nM | >10 | – |
| CN(C)CC#CCCC(=O)C(O)(c1ccccc1)C1CCCCC1 (stereo not drawn) | 38.7 nM | 0.48 | 126 min |
| CC(C)N(C)CC#CCCC(=O)C(O)(c1ccccc1)C1CCCCC1 (stereo not drawn) | 267 nM | 4.2 | 41 min |
| NCC#CCCC(=O)C(O)(c1ccccc1)C1CCCCC1 (stereo not drawn) | 2100 nM | – | – |
| CC(CC#CCN(C)C)C(=O)C(O)(c1ccccc1)C1CCCCC1 (stereo not drawn) | 163 nM | 2.1 | 39 min |
| CCN(CC)CC#CCCC(=O)C(O)(c1ccccc1)c1ccccc1 | 70.7 nM | – | – |
| CCN(C)CC#CCCC(=O)C(O)(c1ccccc1)C1CCC1 (stereo not drawn) | 7.5 nM | 0.86 | 168 min |
| CN(C)CC#CCCC(=O)C(O)(c1ccccc1)c1ccccc1 | 70.1 nM | 0.59 | 45 min |
| CN(C)CC#CCCC(=O)C(O)(c1ccccc1)C1CCCC1 (stereo not drawn) | 2 nM | 0.33 | 98 min |
| CCNCC#CCCC(=O)C(O)(c1ccccc1)C1CC1 (stereo not drawn) | 224 nM | 1.1 | 103 min |
| CN(CC#CCCC(=O)C(O)(c1ccccc1)C1CCCCC1)CCO (stereo not drawn) | 257 nM | – | – |
| CN(C)CC#CCCC(=O)C(O)(c1ccccc1)C1CCC1 (stereo in doubt; 14b) | 4.9 nM | 0.12 | 116 min |
| CN(C)CC#CCCC(=O)C(O)(c1ccccc1)C1CCC1 (stereo in doubt; (-)-14b) | 149 nM | 2.5 | 40 min |
| CN(C)CC#CCCC(=O)C(O[Si](C)(C)C)(c1ccccc1)C1CCCCC1 (stereo not drawn) | >5000 nM | – | – |
| CN(C)CC#CCCC(=O)C(O)(c1ccccc1)C1CC1 (stereo not drawn) | 35 nM | 0.48 | 89 min |
| CCCCN(CC#CCCC(=O)C(O)(c1ccccc1)C1CCCCC1)CCC (stereo not drawn) | 142 nM | 2.6 | 74 min |
| CCN(C)CC#CCCC(=O)C(O)(c1ccccc1)c1ccccc1 | 75.4 nM | 0.9 | 69 min |
